Counter-ions that a name gives are not always drawn.
Columns and labels:
[1] = target: T1, MASP-2 (CCP1-CCP2-SP) (Homo sapiens, UniProt O00187); experiment: Enzymatic assay for MASP-2 inhibitory activity (fluorogenic substrate); type: biochemical
T1 construct: 15 μL of Enzyme MASP-2 (CCP1-CCP2-SP) in Assay Buffer
Summary of the method: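 Fluorescence was normalized between no-enzyme and DMSO-only controls to derive % activity, with IC50 taken as equivalent to Ki except for tight-binding inhibitors. Reactions ran 20 min at room temperature in HEPES pH 7.4/NaCl/Tween 20 buffer, using the C2-derived fluorogenic substrate, before acetic acid stop.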

[2] = target: T2, human α-thrombin (Homo sapiens, UniProt P00734); experiment: Enzymatic assay for thrombin (fluorogenic peptide substrate Boc-VPR-AMC); type: biochemical
T2 construct: enzyme (human α-thrombin (BioPharm® Lab.)) in assay buffer; purchased BioPharm® Lab
Summary of the method: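 Assay conditions kept the reaction linear in time, enzyme and substrate, so IC50 approximated Ki apart from tight- or slow-binding cases. Boc-VPR-AMC cleavage by human α-thrombin proceeded 20 min at room temperature in Hepes pH 7.4/NaCl/Tween 20 buffer, then was acid-quenched and read by fluorescence.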

T1 sequence (O00187 445-686 limits assumed): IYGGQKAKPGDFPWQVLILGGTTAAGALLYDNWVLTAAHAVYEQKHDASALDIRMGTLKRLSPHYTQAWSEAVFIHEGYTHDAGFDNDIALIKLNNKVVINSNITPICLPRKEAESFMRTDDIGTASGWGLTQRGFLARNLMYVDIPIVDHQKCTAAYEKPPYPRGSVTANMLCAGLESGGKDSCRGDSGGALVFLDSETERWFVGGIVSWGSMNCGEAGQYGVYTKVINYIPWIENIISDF
T1 sequence (O00187 287-444 partner limits assumed): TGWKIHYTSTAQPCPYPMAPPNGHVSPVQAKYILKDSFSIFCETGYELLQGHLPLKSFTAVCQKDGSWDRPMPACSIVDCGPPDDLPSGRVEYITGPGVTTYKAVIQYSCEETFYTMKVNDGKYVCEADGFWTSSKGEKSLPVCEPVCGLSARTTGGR

Ki [1] | Ki [2] | SMILES
< 500 nM | 2500 to 10000 nM | Cc1cc(C)cc(CNc2ncc3n(c2=O)[C@H](C(=O)NCc2ccc(CN)nc2)CC3)c1 [Compound 109, (S)-N-((6-(aminomethyl)pyridin-3-yl)methyl)-3-((3,5-dimethylbenzyl)amino)-4-oxo-4,6,7,8-tetrahydropyrrolo[1,2-a]pyrazine-6-carboxamide trifluoroacetate]
< 500 nM | 2500 to 10000 nM | Cc1cccc(C2(Nc3nc(Cl)c4n(c3=O)[C@H](C(=O)NCc3cc5cnccc5[nH]3)CC4)CC2)c1 [Compound 110, (S)—N-((1H-pyrrolo[3,2-c]pyridin-2-yl)methyl)-1-chloro-4-oxo-3-((1-(m-tolyl)cyclopropyl)amino)-4,6,7,8-tetrahydropyrrolo[1,2-a]pyrazine-6-carboxamide trifluoroacetate]
< 500 nM | 2500 to 10000 nM | Cc1cccc(C2(Nc3ncc4n(c3=O)[C@H](C(=O)NCc3cc5cnccc5[nH]3)CC4)CC2)c1 [Compound 111, (S)—N-((1H-pyrrolo[3,2-c]pyridin-2-yl)methyl)-4-oxo-3-((1-(m-tolyl)cyclopropyl)amino)-4,6,7,8-tetrahydropyrrolo[1,2-a]pyrazine-6-carboxamide trifluoroacetate]
< 500 nM | > 25000 nM | O=C(NCc1cc2cnccc2[nH]1)[C@@H]1CCc2c(Cl)nc(NCC3CCCCC3)c(=O)n21 [Compound 112, (S)-N-((1H-pyrrolo[3,2-c]pyridin-2-yl)methyl)-1-chloro-3-((cyclohexylmethyl)amino)-4-oxo-4,6,7,8-tetrahydropyrrolo[1,2-alpyrazine-6-carboxamide trifluoroacetate]
< 500 nM | 2500 to 10000 nM | O=C(NCc1cc2cnccc2[nH]1)[C@@H]1CCc2cnc(NCC3CCCCC3)c(=O)n21 [Compound 113, (S)-N-((1H-pyrrolo[3,2-c]pyridin-2-yl)methyl)-3-((cyclohexylmethyl)amino)-4-oxo-4,6,7,8-tetrahydropyrrolo[1,2-alpyrazine-6-carboxamide trifluoroacetate]
< 500 nM | 2500 to 10000 nM | Cc1cccc(CNc2nc(Cl)c3n(c2=O)[C@H](C(=O)NCc2cc4cnccc4[nH]2)CC3)c1 [Compound 114, (S)-N-((1H-pyrrolo[3,2-c]pyridin-2-yl)methyl)-1-chloro-3-((3-methylbenzyl)amino)-4-oxo-4,6,7,8-tetrahydropyrrolo[1,2-a]pyrazine-6-carboxamide trifluoroacetate]
< 500 nM | 500 to 2500 nM | Cc1cccc(CNc2ncc3n(c2=O)[C@H](C(=O)NCc2cc4cnccc4[nH]2)CC3)c1 [Compound 115, (S)-N-((1H-pyrrolo[3,2-c]pyridin-2-yl)methyl)-3-((3-methylbenzyl)amino)-4-oxo-4,6,7,8-tetrahydropyrrolo[1,2-a]pyrazine-6-carboxamide trifluoroacetate]

The remaining lines, values behind:

SMILES | Ki [1] | Ki [2]
Cc1cc(C)cc(CNc2ncc3n(c2=O)[C@H](C(=O)NCc2cc4cnccc4[nH]2)CC3)c1 [Compound 97, (S)—N-((1H-pyrrolo[3,2-c]pyridin-2-yl)methyl)-3-((3,5-dimethylbenzyl)amino)-4-oxo-4,6,7,8-tetrahydropyrrolo[1,2-a]pyrazine-6-carboxamide trifluoroacetate] | < 500 nM | 500 to 2500 nM
Cc1nc(N)ccc1CNC(=O)[C@@H]1CCc2c(Cl)nc(NCc3cccc(S(C)(=O)=O)c3)c(=O)n21 [Compound 98, (S)—N-((6-amino-2-methylpyridin-3-yl)methyl)-1-chloro-3-((3-(methylsulfonyl)benzyl)amino)-4-oxo-4,6,7,8-tetrahydropyrrolo[1,2-a]pyrazine-6-carboxamide trifluoroacetate] | < 500 nM | 500 to 2500 nM
Cc1nc(N)ccc1CNC(=O)[C@@H]1CCc2cnc(NCc3cccc(S(C)(=O)=O)c3)c(=O)n21 [Compound 99, (S)—N-((6-amino-2-methylpyridin-3-yl)methyl)-3-((3-(methylsulfonyl)benzyl)amino)-4-oxo-4,6,7,8-tetrahydropyrrolo[1,2-a]pyrazine-6-carboxamide trifluoroacetate] | < 500 nM | < 500 nM
O=C(NCc1cc2cnccc2[nH]1)[C@@H]1CCc2c(Cl)nc(NC3CCC3)c(=O)n21 [Compound 100, (S)—N-((1H-pyrrolo[3,2-c]pyridin-2-yl)methyl)-1-chloro-3-(cyclobutylamino)-4-oxo-4,6,7,8-tetrahydropyrrolo[1,2-a]pyrazine-6-carboxamide trifluoroacetate] | < 500 nM | > 25000 nM
O=C(NCc1cc2cnccc2[nH]1)[C@@H]1CCc2c(Cl)nc(NCC3CCOCC3)c(=O)n21 [Compound 101, trifluoroacetate] | < 500 nM | > 25000 nM
O=C(NCc1cc2cnccc2[nH]1)[C@@H]1CCc2cnc(NCc3ccccc3)c(=O)n21 [Compound 102, (S)—N-((1H-pyrrolo[3,2-c]pyridin-2-yl)methyl)-3-(benzylamino)-4-oxo-4,6,7,8-tetrahydropyrrolo[1,2-a]pyrazine-6-carboxamide] | < 500 nM | 500 to 2500 nM
Cc1cc2[nH]c(CNC(=O)[C@@H]3CCc4cnc(NCc5ccccc5)c(=O)n43)cc2cn1 [Compound 103, (S)-3-(benzylamino)-N-((6-methyl-1H-pyrrolo[3,2-c]pyridin-2-yl)methyl)-4-oxo-4,6,7,8-tetrahydropyrrolo[1,2-a]pyrazine-6-carboxamide] | < 500 nM | > 25000 nM
Cc1nc(N)ccc1CNC(=O)[C@@H]1CCc2cnc(NCc3ccccc3)c(=O)n21 [Compound 104, (S)-N-((6-amino-2-methylpyridin-3-yl)methyl)-3-(benzylamino)-4-oxo-4,6,7,8-tetrahydropyrrolo[1,2-a]pyrazine-6-carboxamide] | < 500 nM | < 500 nM
O=C(NCc1cc2cnccc2[nH]1)[C@@H]1CCc2c(Cl)nc(NCc3ccccc3)c(=O)n21 [Compound 105, (S)—N-((1H-pyrrolo[3,2-c]pyridin-2-yl)methyl)-3-(benzylamino)-1-chloro-4-oxo-4,6,7,8-tetrahydropyrrolo[1,2-a]pyrazine-6-carboxamide] | < 500 nM | 10000 to 25000 nM
O=C(NCc1cc2cnccc2[nH]1)[C@@H]1CCc2c(Cl)nc(NC3(c4ccccc4)CC3)c(=O)n21 [Compound 106, (S)-N-((1H-pyrrolo[3,2-c]pyridin-2-yl)methyl)-1-chloro-4-oxo-3-((1-phenylcyclopropyl)amino)-4,6,7,8-tetrahydropyrrolo[1,2-a]pyrazine-6-carboxamide] | < 500 nM | 2500 to 10000 nM
O=C(NCc1cc(Cl)ccc1-n1cnnn1)[C@@H]1CCc2c(Cl)nc(NCc3ccccc3)c(=O)n21 [Compound 107, (S)-3-(benzylamino)-1-chloro-N-(5-chloro-2-(1H-tetrazol-1-yl)benzyl)-4-oxo-4,6,7,8-tetrahydropyrrolo[1,2-a]pyrazine-6-carboxamide] | 500 to 2500 nM | < 500 nM
Cc1cc(C)cc(CNc2ncc3n(c2=O)[C@H](C(=O)NCc2cnc4c(c2)CNC4)CC3)c1 [Compound 108, (S)—N-((6,7-dihydro-5H-pyrrolo[3,4-b]pyridin-3-yl)methyl)-3-((3,5-dimethylbenzyl)amino)-4-oxo-4,6,7,8-tetrahydropyrrolo[1,2-a]pyrazine-6-carboxamide] | < 500 nM | 10000 to 25000 nM

Source: patent US20250122225A1, “MASP-2 INHIBITORS AND METHODS OF USE” (Omeros Corporation, priority 2023, published 2025)
